The results in this text go back to ChEMBL document CHEMBL1123961 (J Med Chem, 1988).

In assay [1] the target is Serotonin receptor 2a and 2c (5HT2A and 5HT2C) (Rattus norvegicus) (UniProt P08909+P14842).
Description: Hill coefficient of compound was determined
The target in assay [2] is T1, Serotonin receptor 2a and 2c (5HT2A and 5HT2C) (Rattus norvegicus, UniProt P08909+P14842). As to the kind of experiment: Binding affinity at 5-hydroxytryptamine 2 receptor determined using [125I]- DOI as radioligand in rat frontal cortex. Type of assay: tissue-based.
The target in assay [3] is T1, Serotonin receptor 2a and 2c (5HT2A and 5HT2C). As to the kind of experiment: Binding affinity at [3H]DOB labeled sites of 5-hydroxytryptamine 2 receptor determined using [125I]- DOI as radioligand in rat frontal cortex. Format: tissue-based.
Assay [4] shares this target. As to the kind of experiment: Binding affinity at [3H]KET labeled sites of 5-hydroxytryptamine 2 receptor determined using [125I]- DOI as radioligand in rat frontal cortex. Type of assay: tissue-based.
Assay [5] shares this target. As to the kind of experiment: Binding affinity at [3H]DOB labeled sites of 5-hydroxytryptamine 2 receptor was determined using [125I]- DOI as radioligand in rat frontal cortex. Type of assay: tissue-based.
Assay [6] shares this target. As to the kind of experiment: Binding affinity at [3H]KET labeled sites of 5-hydroxytryptamine 2 receptor was determined using [125I]- DOI as radioligand in rat frontal cortex. Format: tissue-based.

Serotonin receptor 2a and 2c (5HT2A and 5HT2C) (Rattus norvegicus), sequence (P08909 whole entry, looked up): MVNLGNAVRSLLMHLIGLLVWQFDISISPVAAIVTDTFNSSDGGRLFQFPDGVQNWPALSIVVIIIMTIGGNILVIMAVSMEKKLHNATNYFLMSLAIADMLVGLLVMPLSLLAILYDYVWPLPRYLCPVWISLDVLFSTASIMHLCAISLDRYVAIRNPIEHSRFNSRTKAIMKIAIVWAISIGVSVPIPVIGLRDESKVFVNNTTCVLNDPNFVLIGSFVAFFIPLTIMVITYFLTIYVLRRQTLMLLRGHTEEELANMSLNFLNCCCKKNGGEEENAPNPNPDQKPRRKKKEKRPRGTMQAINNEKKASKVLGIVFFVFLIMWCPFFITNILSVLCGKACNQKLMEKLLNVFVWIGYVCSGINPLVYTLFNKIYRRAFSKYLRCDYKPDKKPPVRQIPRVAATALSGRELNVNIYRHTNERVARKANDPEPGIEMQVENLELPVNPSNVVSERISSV
Serotonin receptor 2a and 2c (5HT2A and 5HT2C) (Rattus norvegicus), sequence (P14842 whole entry, looked up): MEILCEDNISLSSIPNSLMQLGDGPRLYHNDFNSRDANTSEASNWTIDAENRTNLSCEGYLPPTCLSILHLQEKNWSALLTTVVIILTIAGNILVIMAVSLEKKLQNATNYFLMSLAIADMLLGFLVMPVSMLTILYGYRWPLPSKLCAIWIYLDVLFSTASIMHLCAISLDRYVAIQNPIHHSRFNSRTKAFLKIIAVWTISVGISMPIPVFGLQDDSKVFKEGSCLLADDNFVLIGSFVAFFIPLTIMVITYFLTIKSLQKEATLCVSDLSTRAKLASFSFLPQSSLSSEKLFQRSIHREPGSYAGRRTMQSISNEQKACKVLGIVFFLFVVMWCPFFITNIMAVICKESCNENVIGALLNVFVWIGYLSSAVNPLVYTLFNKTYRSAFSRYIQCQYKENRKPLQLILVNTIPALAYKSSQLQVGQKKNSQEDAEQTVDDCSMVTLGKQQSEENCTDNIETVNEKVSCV

On to `O=C(CCCN1CCC2(CC1)C(=O)NCN2c1ccccc1)c1ccc(F)cc1`, for which the nH in assay [1] is 0.75.
In the case of `COc1cc(CC(C)N)c(OC)cc1I` (racemic), the Ki (in general, a dissociation constant, usually derived from enzyme kinetics or from competition with a known ligand) in assay [2] is on record as 2.8 nM; in assay [3], 0.7 nM; in assay [4], 20 nM. In assay [1], this compound returned a nH of 0.89.
Take `COc1cc(C[C@@H](C)N)c(OC)cc1Br`: the nH in assay [1] came to 0.84.
In the case of `CN(C)CCCSc1ccccc1NC(=O)/C=C/c1ccccc1` [CINANSERIN], the values for the Ki in assay [2], in assay [5] and in assay [6] were 5 nM, 3.8 nM and 4.5 nM, respectively. In assay [1], this compound had a nH of 0.76.
`O=C(c1ccc(F)cc1)C1CCN(CCn2c(=O)[nH]c3ccccc3c2=O)CC1` came in with a nH in assay [1] of 0.87.
The same measure, in the same setting: for `NCCc1c[nH]c2ccc(O)cc12` the value was 0.9.
